# Source: patent US10457667B2, “Indolin-2-one derivatives” (Hoffmann-La Roche Inc., priority 2015, dated 2019)
# What was measured:
# [1] = biological target: T1, mouse ENT-1 transporter (Mus musculus, UniProt Q9JIM1); test: ENT1 adenosine uptake inhibition ([3H]-adenosine transport activity); format: cell-based; settings: stable cells expressing mouse ENT-1; [2,8-3H]-adenosine 6 nM, 20 min
# T1 construct: expressed in transfected cells
# T1 sequence (Q9JIM1 1-460): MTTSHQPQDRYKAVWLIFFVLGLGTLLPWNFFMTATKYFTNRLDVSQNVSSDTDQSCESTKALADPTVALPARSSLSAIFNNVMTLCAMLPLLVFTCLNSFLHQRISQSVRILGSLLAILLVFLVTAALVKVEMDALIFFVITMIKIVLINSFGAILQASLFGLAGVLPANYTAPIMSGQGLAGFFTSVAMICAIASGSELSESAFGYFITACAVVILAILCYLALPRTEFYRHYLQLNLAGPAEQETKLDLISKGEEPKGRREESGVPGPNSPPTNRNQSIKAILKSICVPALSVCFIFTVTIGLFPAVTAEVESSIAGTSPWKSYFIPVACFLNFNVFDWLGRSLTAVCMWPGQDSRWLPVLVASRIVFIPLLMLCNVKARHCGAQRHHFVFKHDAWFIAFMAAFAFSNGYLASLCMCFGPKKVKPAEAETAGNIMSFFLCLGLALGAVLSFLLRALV
# Method: To measure adenosine transport activity of ENT-1 mammalian cells, stable cells expressing the mouse ENT-1 transporter were plated on day 1 in 96-well culture plates at the density of 60,000 cells/well, in complete DMEM/F12 medium supplemented with glutamax, 10% FBS and 10 μg/ml puromycin. On day 2, the medium was aspirated and the cells were washed twice with uptake buffer (10 mM Hepes-Tris, pH 7.4 containing 150 mM NaCl, 1 mM CaCl2, 2.5 mM KCl, 2.5 mM MgSO4, 10 mM D-glucose) (UB). For inhibition experiments, cells were then incubated at RT with various concentrations of compounds with 1% DMSO final. Non-specific uptake was defined in the presence of 10 μM S-(4-Nitrobenzyl)-6-thioinosine (NBTI, Sigma Cat #N2255).
# A solution containing [2,8-^3H]-adenosine 6 nM (40 Ci/mmol, American Radiolabeled chemicals Inc, Cat #ART 0287A) was then immediately added to the wells. The plates were then incubated for 20 min with gentle shaking and the reaction was stopped by aspiration of the mixture and washing (three times) with ice-cold UB. The cells were lysed by the addition of scintillation liquid, shaken 3 hours and the radioactivity in the cells was estimated using a microplates scintillation counter (TopCount NXT, Packard).
# [2] = tested on: L-687,414-induced hyperlocomotion; test: L-687,414-induced hyperlocomotion; format: in vivo, mouse; settings: mice; dose 30 mg/kg ip, 15 min before s.c. 50 mg/kg L-687,414
# Method: The described compounds of formula I reduce L-687,414-induced hyperlocomotion. This was assessed by using a computerized Digiscan 16 Animal Activity Monitoring System (Omnitech Electronics, Columbus, Ohio) to quantify locomotor activity. Animals were kept under a 12 h light/dark cycle and experiments were performed during the light period. Each activity monitoring chamber consisted of a Plexiglas box (41×41×28 cm; W×L×H) with sawdust bedding on the floor surrounded by invisible horizontal and vertical infrared sensor beams. The test boxes were divided by a Plexiglas cross providing each mouse with 20×20 cm of moving space. Cages were connected to a Digiscan Analyzer linked to a computer that constantly collected the beam status information. Records of photocell beam interruptions for individual animals were taken every 5 min over the duration of the experimental session and the sum of the first 6 periods was used as the final parameter. At least 8 mice were used in each treatment group. Compounds were administered i.p 15 min before a s.c. injection of 50 mg/kg of L-687,414. […] Horizontal activity was then recorded for a 30-min time period. The % inhibition of L-687,414-induced hyperlocomotion was calculated according to the equation: ((Veh+L−687,414 horizontal activity−drug+L−687,414 horizontal activity)/Veh+L−687,414 horizontal activity)×100 […]
# [3] = tested on: behaviors of compound-treated mice; test: SmartCube behavioral signature similarity analysis; format: in vivo, mouse; settings: for discrimination rate vs Clozapine (1.0 mg/kg) / discrimination rate vs Olanzapine (0.25 mg/kg) / discrimination rate vs Risperidone (0.06 mg/kg): SmartCube, test compound at 3 mg/kg i.p., rate of 0.70 or lower = similar; for SmartCube behavioral signature classification: mice, result in words
# Text: authors described that hyperlocomotion induced by L-687,414 was inhibited by a series of known antipsychotic drugs. […] These findings predict antipsychotic activity for the present compounds, making them useful for the treatment of positive (psychosis) and negative symptoms of schizophrenia, substance abuse, alcohol and drug addiction, obsessive-compulsive disorders, cognitive impairment, bipolar disorders, mood disorders, major depression, resistant depression, anxiety disorders, Alzheimer's disease, autism, Parkinson's disease, chronic pain, borderline personality disorder, sleep disturbances, chronic fatigue syndrome, stiffness, antiinflammatory effects in arthritis and balance problems, epilepsy and neurodevelopmental disorders with co morbid epilepsy. In addition to the reversal of L-687,414 induced hyperlocomotion experiment as described above, some compounds of the present invention have been tested in SmartCube®, an automated system in which the behaviors of compound-treated mice in response to multiple challenges are captured by digital video and analyzed with computer algorithms (Roberds et al., Frontiers in Neuroscience, 2011, Vol. 5, Art. 103, 1-4; Vadim Alexandrov, Dani Brunner, Taleen Hanania, Emer Leahy Eur. J. Pharmacol. 2015, 750, 82-99). In this way, the neuro-pharmacological effects of a test compound can be predicted by similarity to major classes of compounds, such as antipsychotics, anxiolytics and antidepressants.
# SmartCube® was used to compare the behavioral signature of a test compound to a database of behavioral signatures obtained from a large set of clinically approved reference drugs, grouped per indications. In this way, the neuro-pharmacological effects of a test compound can be predicted by similarity to major classes of compounds, such as antipsychotics, anxiolytics and antidepressants. This approach is ideally suited to screen collections of existing drugs or drug candidates with previously unknown neuropharmacology, which could expedite the development of new and unexpected treatments for psychiatric disorders.
# Some compounds of the present invention were injected i.p. at different doses 15 minutes before the test. At least 8 mice were used in each treatment group. Digital videos of the subjects were processed with computer vision algorithms to extract over 2000 dependent measures including frequency and duration of many different behavioral states. The results of the classifications are presented as bar charts for each compound and dose (mg/kg), the Y-axis indicates the relative probability that the test compound will show efficacy in the specific CNS indication.
# Compounds of the present invention show similar signatures to those of atypical antipsychotics. An independent analysis was performed on the unclassified data to determine the similarity of the example compounds to active doses of known atypical antipsychotics. For this analysis, we use discrimination rate as the measure of separability between the two drugs, i.e. one drug's “distinguishability” from another. A rate equal to 50% (or 0.5) corresponds to zero distinguishability. […] In most cases, the example compounds show a similarity to risperidone, clozapine and olanzapine with a discrimination rate of ≤0.70.
IC50 [1],Structure (SMILES),"Inhibition, ip of L-687,414-induced hyperlocomotion [2]",discrimination rate vs Clozapine (1.0 mg/kg) [3],discrimination rate vs Olanzapine (0.25 mg/kg) [3],discrimination rate vs Risperidone (0.06 mg/kg) [3],SmartCube behavioral signature classification [3]
0.438 µM,"COc1cncc(N2C(=O)C(C)(C)c3ccc(-c4cnc(C)nc4)cc32)c1 [Example 2, 1-(5-Methoxypyridin-3-yl)-3,3-dimethyl-6-(2-methylpyrimidin-5-yl)indolin-2-one]",93.6%,0.58,0.68,0.51,similarity to atypical antipsychotics
0.0348 µM,"COc1ccc(N2C(=O)C(C)(C)c3ccc(-c4cnc(C)nc4)cc32)nn1 [Example 12, 1-(6-Methoxypyridazin-3-yl)-3,3-dimethyl-6-(2-methylpyrimidin-5-yl)indolin-2-one]",94.6%,0.67,0.63,0.56,similarity to atypical antipsychotics
